Where two headings read alike, the source gives them in different places.
Tests used:
[1] = molecular target: T1, Fel d 4 (Felis catus, UniProt Q5VFH6); experiment: Competitive fluorescence-quenching assay, Fel d 4; assay type: binding, cat; details: for Ki: 5 μM Fel d 4, fluorochrome 1-NPN, to be interpreted with caution, imprecise Ki values, read-out: Ligand inhibition constant Ki; for inhibition at 100 µM: read-out: Mean fluorescence inhibition
T1 construct: polyhistidine tag (C); made in house; host or cells: E. coli Rosetta-gami 2
T1 sequence (Q5VFH6 16-186): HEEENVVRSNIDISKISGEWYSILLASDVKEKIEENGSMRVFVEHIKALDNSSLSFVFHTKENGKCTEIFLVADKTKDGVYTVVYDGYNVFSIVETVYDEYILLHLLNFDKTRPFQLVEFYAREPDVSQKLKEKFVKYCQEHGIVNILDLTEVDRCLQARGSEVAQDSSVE
Method: (§1) Fluorescence quenching assays were performed as previously described ([45]), with modifications. Fluorochromes and ligands were purchased from Sigma Aldrich (Steinheim, Germany), Carl Roth (Karlsruhe, Germany) and TCI Europe N.V. (Zwijndrecht, Belgium).
(§2) Stock solutions were prepared at a concentration of 10 mM in 100% ethanol for the fluorochromes 1-aminoanthracene (1-AMA), 8-anilino-1-naphthalensulfonic acid (1,8-ANS) and for all ligands, and in 100% methanol for n-phenyl-1-naphthylamine (1-NPN), respectively. Iron catecholate ligands (siderophores) were prepared as previously described ([46]). Fluorochrome-protein complexes were analyzed at an equimolar concentration of 5 μM in PBS with 5% ethanol in a volume of 100 μL per well in black 96-well non-binding microplates (Greiner Bio-One GmbH, Frickenhausen, Germany). Solutions containing only protein or the respective fluorescent probe in PBS with 5% ethanol served as controls. Fluorochrome-protein complexes were incubated with orbital shaking for 10 min at 500 rpm at room temperature (RT) before measurement using the fluorescence reader TECAN Infinite 200 Pro (Tecan Trading AG, Switzerland). Excitation wavelengths were fixed at 380 nm for 1-AMA and 1,8-ANS, and 337 nm for 1-NPN. Fluorescence emission spectra were recorded in 5 nm steps between 420 and 560 nm for 1-AMA and 1,8-ANS and between 380 and 500 nm for 1-NPN. The establishment of fluorescent quenching assay parameters for each allergen is explained in the results Section Fluorescence-quenching assay set up. Binding affinities were analyzed by non-linear regression in GraphPad Prism Version 9.3.1 (GraphPad Software, LLC). For the ligand competition assays, ligands were added to fluorochrome-allergen complexes with a final buffer composition of 5% ethanol in PBS in a volume of 100 μL and incubated for 30 min at 500 rpm at RT and further equilibrated for another 30 min without shaking before fluorescence measurement.
(§3) The binding affinities of non-fluorescent ligands is inferred to by their ability to compete and displace the fluorochromes bound to the allergen at a certain concentration. This leads to a measurable decrease in fluorescence intensity that will be expressed as fluorescence inhibition (Figure 6). For a given allergen, the ligand with the strongest inhibition has the highest binding affinity. […] Competitive ligand binding was analyzed by non-linear regression and inhibitory dissociation constants (Ki) were calculated.

[2] = molecular target: T2, Can f 6 (Canis lupus familiaris, UniProt H2B3G5); experiment: Competitive fluorescence-quenching assay, Can f 6; assay type: binding, dog; details: for inhibition at 100 µM: read-out: Mean fluorescence inhibition; for Ki: 5 μM Can f 6, fluorochrome 1-NPN, to be interpreted with caution, imprecise Ki values, read-out: Ligand inhibition constant Ki
T2 construct: polyhistidine tag (C); made in house; host or cells: E. coli Rosetta-gami 2
T2 sequence (H2B3G5 16-190): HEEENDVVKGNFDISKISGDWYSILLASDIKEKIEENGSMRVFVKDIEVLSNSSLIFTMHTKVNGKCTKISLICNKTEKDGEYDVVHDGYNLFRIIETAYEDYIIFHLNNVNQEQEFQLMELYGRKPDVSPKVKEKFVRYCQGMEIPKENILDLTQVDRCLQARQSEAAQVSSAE
Method: as §1, §2, §3

[3] = molecular target: T3, human LCN1 (Homo sapiens, UniProt P31025); experiment: Competitive fluorescence-quenching assay, LCN1; assay type: binding; details: for inhibition at 50 µM: 5 μM LCN1-1,8-ANS complex, 50 μM ligand, n = 2
T3 construct: made in house; host or cells: E. coli Rosetta-gami 2(DE3)
Method: as §1, §2, §3

[4] = molecular target: T4, Can f 1 (Canis lupus familiaris, UniProt O18873); experiment: Competitive fluorescence-quenching assay, Can f 1; assay type: binding, dog; details: for inhibition at 50 µM: read-out: Mean fluorescence inhibition
T4 construct: made in house; host or cells: E. coli Rosetta-gami 2(DE3)
Method: as §1, §2, §3

[5] = molecular target: Ory c 3 (Oryctolagus cuniculus, UniProt Q9GK63+Q9GK67); experiment: Competitive fluorescence-quenching assay, Ory c 3; assay type: binding, rabbit; details: for inhibition at 50 µM: read-out: Mean fluorescence inhibition
Method: as §1, §2, §3

[6] = molecular target: Cav p 1.0101 (Cavia porcellus, UniProt A0A484HM70, S19A); experiment: Competitive fluorescence-quenching assay, Cav p 1.0101; assay type: binding, guinea pig; details: for inhibition at 50 µM / Mean fluorescence inhibition: 5 μM Cav p 1.0101-1-AMA complex, 50 μM ligand, n = 2
Method: as §1, §2, §3

[7] = tested on: Ory c 2; experiment: Competitive fluorescence-quenching assay, Ory c 2; assay type: binding, rabbit; details: for Mean fluorescence inhibition: 5 μM Ory c 2-1-AMA complex, 50 μM ligand, n = 2
Method: as §1, §2, §3

[8] = molecular target: Cav p 1.0201 (Cavia porcellus, UniProt A0A484HRI4); experiment: Competitive fluorescence-quenching assay, Cav p 1.0201; assay type: binding, guinea pig; details: for inhibition at 50 µM / Mean fluorescence inhibition: 5 μM Cav p 1.0201-1-AMA complex, 50 μM ligand, n = 2
Method: as §1, §2, §3

[9] = molecular target: T5, Fel d 1 (Felis catus, UniProt P30438+P30440); experiment: Competitive fluorescence-quenching assay, Fel d 1; assay type: binding, cat; details: for Ki: Ligand inhibition constant Ki
T5 construct: polyhistidine tag (C); made in house; host or cells: E. coli Rosetta-gami 2
T5 sequence (P30438+P30440 with tags, fused parts or gaps): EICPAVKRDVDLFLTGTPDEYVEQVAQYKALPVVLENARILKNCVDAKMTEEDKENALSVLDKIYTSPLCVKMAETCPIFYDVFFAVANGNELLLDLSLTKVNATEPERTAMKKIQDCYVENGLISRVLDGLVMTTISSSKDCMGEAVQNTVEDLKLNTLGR
Method: as §1, §2, §3

[10] = 5 μM Fel d 4-1-NPN complex, 100 μM ligand
[11] = 5 μM Can f 6-1-NPN complex, 100 μM ligand, high standard error
[12] = 5 μM Ory c 3-1-AMA complex, 50 μM ligand, n = 2
[13] = read-out: Mean fluorescence inhibition, 5 μM Fel d 1 + 1,8-ANS complex, 100 μM ligand
[14] = 5 μM Fel d 1 + 1,8-ANS complex, 100 μM ligand, read-out: Mean fluorescence inhibition
[15] = 5 μM Fel d 1 + 1-NPN complex, 100 μM ligand, read-out: Mean fluorescence inhibition
[16] = 5 μM Fel d 1 + 1,8-ANS complex, 100 μM ligand
[17] = read-out: Mean fluorescence inhibition, 5 μM Fel d 1 + 1-NPN complex, 100 μM ligand

## CC(C)c1ccccc1O [2-Isopropylphenol, 2-isopropylphenol]
[1]
  Ki: 20.1 µM
[1]; [10]
  inhibition at 100 µM: 99.5%
[2]; [11]
  inhibition at 100 µM: 105%

## CCCCC/C=C\C/C=C\C/C=C\C/C=C\CCCC(=O)O [Arachidonic acid, arachidonic acid]
[3]; 5 μM LCN1, fluorochrome 1,8-ANS, read-out: Ligand inhibition constant Ki
  Ki: 1.9 µM
[3]
  inhibition at 50 µM: 96.7%
[4]
  Ki: 1.3 µM
  inhibition at 50 µM: 86.4%

## CCCCCCCCCCO [1-Decanol, 1-decanol]
[5]
  Ki: 0.7 µM
[5]; [12]
  inhibition at 50 µM: 98%
[6]
  inhibition at 50 µM: 99%
[6]; Ligand inhibition constant Ki, 5 μM Cav p 1.0101, fluorochrome 1-AMA
  Ki: 0.8 µM
[7]
  Mean fluorescence inhibition: 75.1%
[8]
  Ki: 1.1 µM
  inhibition at 50 µM: 98.2%
[9]; [13]
  inhibition at 100 µM: 68.4%

## C[C@]12CC[C@H]3[C@@H](CCC4=CC(=O)CC[C@@]43C)[C@@H]1CC[C@@H]2O [Testosterone, testosterone]
[6]
  Mean fluorescence inhibition: not observed
[1]
  inhibition at 100 µM: 92.2%
[2]
  inhibition at 100 µM: 43.7%
[8]
  Mean fluorescence inhibition: not observed

## CC(C)CCCC(C)CCO (centres unmarked) [3,7-dimethyl-1-octanol]
[5]; [12]
  inhibition at 50 µM: 91.1%
[6]
  inhibition at 50 µM: 96.4%
[1]; [10]
  inhibition at 100 µM: 89.5%
[2]; [11]
  inhibition at 100 µM: 100%
[7]
  Mean fluorescence inhibition: 72.5%
[8]
  inhibition at 50 µM: 80.3%
[9]; [14]
  inhibition at 100 µM: 58.3%
[9]; [15]
  inhibition at 100 µM: 85.4%

## CC1=C(/C=C/C(C)=C/C=C/C(C)=C/CO)C(C)(C)CCC1 [Retinol, retinol]
[3]
  inhibition at 50 µM: 84.3%
[4]; 5 μM Can f 1-1,8-ANS complex, 50 μM ligand, n = 2
  inhibition at 50 µM: 49%

## CCCCCCCCCCCCO [1-Dodecanol, 1-dodecanol]
[5]; [12]
  inhibition at 50 µM: 95.6%
[6]
  inhibition at 50 µM: 98.9%
[7]
  Mean fluorescence inhibition: 84.6%
[8]
  inhibition at 50 µM: 97%
[9]; [14]
  inhibition at 100 µM: 44.2%

## CC(C)=CCCC(C)=CC#N [Geranyl nitrile, geranyl nitrile]
[6]
  Mean fluorescence inhibition: 57.4%
[7]
  Mean fluorescence inhibition: 91.2%
[8]
  Mean fluorescence inhibition: 89.1%

## CCCCCCCCCCCCCCO [Tetradecanol, tetradecanol]
[5]; [12]
  Mean fluorescence inhibition: 92.9%
[6]
  Mean fluorescence inhibition: 82.4%
[7]
  Mean fluorescence inhibition: 55.4%
[8]
  Mean fluorescence inhibition: 97.9%
[9]; [16]
  Mean fluorescence inhibition: 0.0%

## CC(C)CCC[C@@H](C)[C@H]1CC[C@H]2[C@@H]3CC=C4C[C@@H](O)CC[C@]4(C)[C@H]3CC[C@]12C [cholesterol]
[6]
  Mean fluorescence inhibition: not observed
[8]
  Mean fluorescence inhibition: not observed

## CC(C)c1cccc(O)c1 [3-Isopropylphenol, 3-ilsopropylphenole]
[6]
  inhibition at 50 µM: 55.3%
[1]; [10]
  inhibition at 100 µM: 89.5%
[2]; [11]
  inhibition at 100 µM: 107%
[7]
  Mean fluorescence inhibition: 89.5%
[8]
  inhibition at 50 µM: 75.7%

## monophosphoryl lipid A [MPLA]
[5]; [12]
  Mean fluorescence inhibition: more than half
[6]
  Mean fluorescence inhibition: more than half
[8]
  Mean fluorescence inhibition: more than half

## CCCCCCCCCC(=O)O [Decanoic acid, decanoic acid]
[5]; [12]
  inhibition at 50 µM: 76.1%
[9]; [13]
  inhibition at 100 µM: 71.2%
[9]; [17]
  inhibition at 100 µM: 101%

## CCCCCCCCCCCC(=O)O [Dodecanoic acid, dodecanoic acid]
[5]
  inhibition at 50 µM: 76.2%
[9]; 5 μM Fel d 1, fluorochrome 1,8-ANS
  Ki: 26.7 µM
[9]; 5 μM Fel d 1, fluorochrome 1-NPN
  Ki: 14.4 µM
[9]; [13]
  inhibition at 100 µM: 75.2%
[9]; [17]
  inhibition at 100 µM: 91.7%

## CCCc1ccc(O)cc1 [4-Propylphenol, 4-propylphenol]
[5]; [12]
  inhibition at 50 µM: 93.2%
[6]
  inhibition at 50 µM: 65.7%
[7]; 5 μM Ory c 2, fluorochrome 1-AMA, read-out: Ligand inhibition constant Ki
  Ki: 2.6 µM
[7]
  Mean fluorescence inhibition: 93.2%
[8]
  inhibition at 50 µM: 57%
[9]; [13]
  inhibition at 100 µM: 52.8%
[9]; [17]
  inhibition at 100 µM: 65.3%

## CCCCCCCCCCCCCCCO [Pentadecanol, pentadecanol]
[6]
  Mean fluorescence inhibition: 51.3%
[7]
  Mean fluorescence inhibition: 20.8%
[8]
  Mean fluorescence inhibition: 94.5%

## COc1nccnc1CC(C)C [IBMP, 2-isobutyl-3-methoxypyrazine]
[1]
  Ki: 39.2 µM
[1]; [10]
  inhibition at 100 µM: 96.8%
[2]
  Ki: 49.6 µM
[2]; [11]
  inhibition at 100 µM: 118%

## CCCCCCCCN [Octanamine, octanamine]
[5]; [12]
  Mean fluorescence inhibition: 54.7%
[1]; [10]
  Mean fluorescence inhibition: 94.9%
[2]
  Ki: 273 µM
[2]; [11]
  Mean fluorescence inhibition: 148.7%
[9]; [16]
  Mean fluorescence inhibition: 37.7%
[9]; 5 μM Fel d 1 + 1-NPN complex, 100 μM ligand
  Mean fluorescence inhibition: 81.1%

## CCCCCCCCO [Caprylic alcohol, 1-octanol]
[5]; [12]
  inhibition at 50 µM: 68.8%
[6]
  inhibition at 50 µM: 86.7%
[7]
  Mean fluorescence inhibition: 65.3%
[8]
  inhibition at 50 µM: 82.1%
[9]; [14]
  inhibition at 100 µM: 56.5%
[9]; [15]
  inhibition at 100 µM: 49.2%

Reference: PMC9385959, “Mammalian derived lipocalin and secretoglobin respiratory allergens strongly bind ligands with potentially immune modulating properties” (Frontiers in Allergy, 2022)
